Assay results taken from patent publication EP0870197B2, “USE OF NUCLEAR MAGNETIC RESONANCE TO DESIGN LIGANDS TO TARGET BIOMOLECULES” (priority 1995, dated 1997).
Read-outs that look alike come from different tables or passages of the source.

Tests used:
[1] = biological target: T1, DNA-binding domain of the E2 protein (Human papillomavirus 31, UniProt P17383); test: two-dimensional 15N/1H NMR correlation titration, binding constants for two binding sites
T1 construct: made in house; host or cells: bacteria, T7 expression system
T1 sequence (P17383 292-372): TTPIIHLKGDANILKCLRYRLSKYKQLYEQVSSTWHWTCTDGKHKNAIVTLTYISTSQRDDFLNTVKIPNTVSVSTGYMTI
Method: Compounds from the database were screened in a similar manner for binding to the DNA-binding domain of the E2 protein. Those compounds had the structure II below, where R1-R4 and A are defined in Table 2. [drawing 5]
NMR experiments were performed at 29°C on a Bruker AMX500 NMR spectrometer equipped with a triple resonance probe and Bruker sample changer. The ^15N-/^1H HSQC spectra were acquired as 80 x 1024 complex points using sweep widths of 2000 Hz (^15N,t1) and 8333 Hz (^1H, t2). A delay of 1 second between scans and 4 scans per free induction decay were employed in the data collection. All NMR spectra were processed and analyzed on Silicon Graphics computers.
By monitoring the chemical shift changes as a function of ligand concentration, binding constants for the two binding sites were also measured. Table 2 […]

Stromelysin [2] = biological target: T2, Stromelysin (Homo sapiens, UniProt P08254); test: stromelysin inhibition by linked hydroxamate-biaryl compounds; format: biochemical; details: for IC50: Table 4, kind of constant not given
T2 construct: expression construct coding for amino acid residues 81-256 plus an initiating methionine; initiating methionine (N); made in house; host or cells: E. coli BL21(DE3)/pLysS, pET3d
T2 sequence (P08254 98-273): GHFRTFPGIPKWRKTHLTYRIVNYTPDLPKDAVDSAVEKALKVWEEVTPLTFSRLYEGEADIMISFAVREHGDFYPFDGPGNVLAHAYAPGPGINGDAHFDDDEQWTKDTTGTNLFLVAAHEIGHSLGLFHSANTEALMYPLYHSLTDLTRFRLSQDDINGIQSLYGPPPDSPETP

[3] = biological target: T3, catalytic domain of stromelysin (Homo sapiens, UniProt P08254); test: two-dimensional 15N/1H NMR correlation titration, dissociation constant; format: binding
T3 construct: expression construct coding for amino acid residues 81-256 plus an initiating methionine; initiating methionine (N); made in house; host or cells: E. coli BL21(DE3)/pLysS, pET3d
T3 sequence (P08254 98-273): as above
Method: Binding or dissociation constants are measured by following the ^15N/^1H chemical shifts of the protein as a function of ligand concentration. A known concentration ([P]o) of the target molecule is mixed with a known concentration ([L]0) of a previously identified ligand and the two-dimensional ^15N/^1H correlation spectrum was acquired. From this spectrum, observed chemical shift values (δobs) are obtained. The process is repeated for varying concentrations of the ligand to the point of saturation of the target molecule, when possible, in which case the limiting chemical shift value for saturation (δsat) is measured.
In those situations where saturation of the target molecule is achieved, the dissociation constant for the binding of a particular ligand to the target molecule is calculated using the formula: KD = (([P]0−x)([L]0−x))/(x) [formula] where [P]0 is the total molar concentration of target molecule; [L]0 is the total molar concentration of ligand; and x is the molar concentration of the bound species. The value of x is determined from the equation: x = (δobs −δfree)/(Δ) [formula] where δfree is the chemical shift of the free species; δobs is the observed chemical shift; and Δ is the difference between the limiting chemical shift value for saturation (δsat) and the chemical shift value of the target molecule free of ligand (δfree).
The dissociation constant is then determined by varying its value until a best fitto the observed data is obtained using standard curve-fitting statistical methods. In the case where δsat is not directly known, both KD and δsat are varied and subjected to the same curve-fitting procedure.
The catalytic domain of stromelysin was prepared in accordance with the procedures of Example 1. The protein solutions used in the screening assay contained the uniformly ^15N-labeled catalytic domain of stromelysin (0.3 mM), acetohydroxamic acid (500 mM), CaCl2 (20 mM), and sodium azide (0.5%) in a H2O/D2O (9/1) TRIS buffered solution (50 mM, pH=7.0).
Two-dimensional ^15N/^1H NMR spectra were generated at 29°C on a Bruker AMX500 NMR spectrometer equipped with a triple resonance probe and Bruker sample changer. The ^15N/^1H HSQC spectra were acquired as 80 x 1024 complex points using sweep widths of 2000 Hz (^15N, t^1) and 8333 Hz (^1H, t2). A delay of 1 second between scans and 8 scans perfree induction decay(fid) were employed in the data collection. All NMR spectra were processed and analyzed on Silicon Graphics computers using in-house-written software.
A first two-dimensional ^15N/^1 H NMR correlation spectrum was acquired for the ^15N-labeled stromelysin target molecule as described above. The stromelysin target was then exposed to a database of test compounds. Stock solutions of the compounds were made at 100 mM and 1 M. In addition, a combination library was prepared that contained 8-10 compounds per sample at a concentration of 100 mM for each compound.
The NMR samples were prepared by adding 4 µl of the DMSO stock solution of the compound mixtures that contained each compound at a concentration of 100 mM to 0.4 ml H2O/D2O (9/1) buffered solution of the uniformly ^15N-labeled protein. The final concentration of each of the compounds in the NMR sample was about 1 mM.
Various biaryl compounds of structure I were tested for binding to stromelysin at differing concentrations. The ^15N/^1H spectra generated at each concentration were evaluated to quantify differences in the spectra as a function of compound concentration. A binding or dissociation constant (KD)was calculated, using standard procedures well known in the art, from those differences. The values for R1-R3 and A1-A3 in Table 1 refer to the corresponding positions in the structure I, above.
All NMR measurements were performed in the presence of 500 mM acetohydroxamic acid, except for the titration of acetohydroxamic acid itself. Dissociation constants were obtained from the dependence of the observed chemical shift changes upon added ligand. […]

[4] = biological target: T3, catalytic domain of stromelysin; test: enzymatic assay, cleavage of a fluorogenic substrate; format: biochemical
Method: In a first study, binding constants were determined, both by the NMR method of the present invention, and by a prior art enzymatic assay. The target molecule was the catalytic domain of stromelysin prepared in accordance with the procedures of Example 1. […] The KD values so obtained were compared to an inhibition constant KI as determined in an enzymatic assay.
The enzymatic assay measured the rate of cleavage of a fluorogenic substrate by following the fluorescence increase upon peptide cleavage which causes a separation between the fluorophore and quencher. Enzymatic activity was measured using a matrix of different concentrations of acetohydroxamic acid and biaryl compounds. The assay is a modification of the method described by H. Weingarten, et al. in Anal. Biochem., 147: 437-440 (1985) employing the fluorogenic substrate properties described by E. Matayoshi, et al. in Science: 247: 954-958 (1990).
Eight acetohydroxamic acid concentrations were used ranging from 0.0 to 1.0 M, and six compound concentrations were used, resulting in a total of 48 points. Individual compound concentration varied due to solubility and potency.
All NMR measurements were performed in the presence of 500 mM acetohydroxamic acid, except for the titration of acetohydroxamic acid itself. Dissociation constants were obtained from the dependence of the observed chemical shift changes upon added ligand. Inhibition constants were then obtained from the inhibition data using standard procedures.

FKBP [5] = biological target: T4, FKBP (Homo sapiens, UniProt P62942); test: binding affinity by fluorescence titrations; parameters: made in house
T4 sequence (P62942 whole entry): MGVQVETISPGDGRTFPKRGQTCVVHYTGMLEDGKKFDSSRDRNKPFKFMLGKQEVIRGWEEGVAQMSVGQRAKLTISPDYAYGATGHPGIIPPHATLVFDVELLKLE

FKBP [6] = biological target: T4, FKBP; test: two-dimensional 15N/1H NMR correlation titration, dissociation constant; format: binding; parameters: made in house; host or cells: recombinant
Method: The second step in the design process was the identification of a second ligand that bound to the target FKBP at a site different from the binding site of compound 29. This was accomplished by screening compounds for their ability to bind to FKBP in the presence of saturating amounts of the ascomycin fragment analog (compound 29). Details of procedures for this second identification step are as set forth in example 2.
In the second round of screening, binding was assayed both in the presence and in the absence of saturating amount of compound 29 (1 mM).
Various benzanilide compounds were tested for binding to FKBP at multiple ligand concentrations. The ^15N/^1H correlation spectra generated at each concentration were evaluated to quantify differences in the spectra as a function of compound concentration. A binding or dissociation constant (Kd) was calculated, using standard procedures well known in the art, from those differences. The values for R1-R4 in Table 5 refer to the corresponding positions in the structure III, above.

Stromelysin [7] = biological target: T2, Stromelysin; test: inhibition of stromelysin degradation (autolysis); format: biochemical; details: at a concentration of 500 mM
Method: Studies were performed to design new ligands that bound to the catalytic domain of stromelysin. Because stromelysin undergoes autolysis, an inhibitor was sought to block the degradation of stromelysin. That inhibitor would facilitate the screening of other potential ligands that bind to other sites on the enzyme.
A variety of hydroxamic acids of the general formula R-(CO)NHOH were screened for binding to stromelysin using the procedures set forth in Example 2.

water solubility = format: physicochemical
[8] = amides of the DNA-binding site, read-out: DNA KD
[9] = amides of the β-barrel site, read-out: β-barrel KD
[10] = Table 1, biaryl compounds of structure I, differing concentrations, read-out: KD
[11] = Table 3, in the presence of 500 mM acetohydroxamic acid, read-out: NMR KD
[12] = fluorogenic substrate, matrix of acetohydroxamic acid and compound concentrations, read-out: Assay KI

## CC(CCc1ccc(Oc2ccccc2)cc1)CC(=O)O (centres unmarked) [Compound 19]
[1]; [8]
  Kd: 500 µM
[1]; [9]
  Kd: 200 µM

## O=C(CCCCCOc1ccc(-c2ccccc2)cc1)NO [Compound 24]
Stromelysin [2]
  inhibition at 100 µM: 43%

## OCc1ccc(-c2ccccc2)cc1 [Compound 2]
[3]; [10]
  Kd: 3200 µM

## Oc1ccc(-c2ccc(O)cc2)cc1 [Compound 9]
[3]; [10]
  Kd: 10 µM
[3]; [11]
  Kd: 160 µM
[4]; [12]
  Ki: 700 µM

## O=C(O)c1ccc(-c2cc(Cl)cc(Cl)c2)cc1 [Compound 16]
[1]; [8]
  Kd: 100 µM
[1]; [9]
  Kd: > 50000 µM

## O=C(c1ccccc1)c1cccc(O)c1 [Compound 13]
[1]; [8]
  Kd: > 50000 µM
[1]; [9]
  Kd: 600 µM

## COc1ccc(-c2ccccc2)cc1N [Compound 6]
[3]; [10]
  Kd: 400 µM

## COc1cc(C(=O)C(=O)N2CCCC[C@H]2C(=O)OCCCOc2ccc(C(=O)Nc3ccc(O)cc3)cc2)cc(OC)c1OC
FKBP [5]
  Kd: 0.019 µM
  increase in potency over the ascomycin-fragment analog (compound 29) alone: 100 fold

## O=C(Nc1ccccc1)c1ccc(O)cc1 [Compound 32]
FKBP [6]
  Kd: 500 µM

## O=C(O)c1ccc(-c2ccccc2)cc1 [Compound 15]
[1]; [8]
  Kd: 2000 µM
[1]; [9]
  Kd: > 50000 µM

## Oc1ccc(-c2ccccc2)cc1 [Compound 11]
[3]
  Kd: 300 µM

## N#Cc1ccc(-c2ccc(OCCCCC(=O)NO)cc2)cc1 [Compound 27]
Stromelysin [2]
  IC50: 3.5 µM

## N#Cc1ccc(-c2ccc(OCCCC(=O)NO)cc2)cc1 [Compound 26]
Stromelysin [2]
  IC50: 3.4 µM

## O=C(CCOc1ccc(-c2ccccc2)cc1)NO [Compound 21]
Stromelysin [2]
  IC50: 0.31 µM

## c1ccc(-c2ccncc2)cc1 [Compound 7]
[3]; read-out: KD
  Kd: 200 µM
[3]; read-out: NMR KD
  Kd: 170 µM
[4]; read-out: Assay KI
  Ki: 320 µM

## O=C(O)C=Cc1ccc(-c2ccccc2)cc1 [Compound 18]
[1]; [8]
  Kd: 1200 µM
[1]; [9]
  Kd: 6200 µM

## CC(=O)Oc1ccc(-c2ccccc2)cc1 [Compound 8]
[3]; [10]
  Kd: 300 µM

## O=C(Nc1ccccc1)c1ccccc1 [Compound 36]
FKBP [6]
  Kd: > 5000 µM

## O=C(O)Cc1ccc(-c2ccccc2)cc1 [Compound 17]
[1]; [8]
  Kd: 4200 µM
[1]; [9]
  Kd: 4900 µM

## COC(=O)[C@@H]1CCCCN1C(=O)C(=O)c1cc(OC)c(OC)c(OC)c1 [Compound 29]
FKBP [6]; ligand concentrations of 1 mM
  occupancy of the binding site: > 98%
FKBP [5]
  Kd: 2 µM

## N#Cc1ccc(-c2ccc(OCCCCCC(=O)NO)cc2)cc1 [Compound 28]
Stromelysin [2]
  IC50: 1.7 µM

## O=C(O)CCC(=O)c1ccc(Oc2ccccc2)cc1 [Compound 20]
[1]; [8]
  Kd: 2700 µM
[1]; [9]
  Kd: 4800 µM

## N#Cc1ccc(-c2ccc(O)cc2)cc1 [Compound 12]
[3]; [10]
  Kd: 10 µM
[3]; [11]
  Kd: 20 µM
[4]; [12]
  Ki: 110 µM

## c1ccc(-c2ccncn2)cc1 [Compound 4]
[3]; [10]
  Kd: 1600 µM
[3]; [11]
  Kd: 1600 µM
[4]; [12]
  Ki: 7400 µM

## Cc1cc(C(=O)Nc2ccc(O)cc2)ccc1O [Compound 35]
FKBP [6]
  Kd: 500 µM

## Oc1ccc(-c2ccc(Br)cc2)cc1 [Compound 3]
[3]; [10]
  Kd: 1300 µM

## O=C(CCCOc1ccc(-c2ccccc2)cc1)NO [Compound 22]
Stromelysin [2]
  IC50: 110 µM

## Oc1cccc(-c2ccccc2)c1 [Compound 1]
[3]
  Kd: 1100 µM

## O=C(Nc1ccc(O)cc1)c1ccccc1 [Compound 34]
FKBP [6]
  Kd: 600 µM

## c1cc(-c2ccncc2)ccn1 [Compound 10]
[3]
  Kd: 400 µM
[3]; read-out: NMR KD, Table 3, in the presence of 500 mM acetohydroxamic acid
  Kd: 400 µM
[4]
  Ki: 1800 µM

## OCc1cccc(Oc2ccccc2)c1 [Compound 14]
[1]; [8]
  Kd: > 50000 µM
[1]; [9]
  Kd: 2000 µM

## O=C(Nc1ccccc1)c1ccccc1O [Compound 37]
FKBP [6]
  Kd: > 5000 µM

## O=C(Nc1ccc(O)cc1)c1ccc(O)cc1 [Compound 33]
FKBP [6]
  Kd: 100 µM

## CC(=O)NO [Acetohydroxamic acid, acetohydroxamic acid, reference compound]
Stromelysin [7]
  degradation of the enzyme: inhibited the degradation of the enzyme
Water solubility
  water solubility: good water solubility
[3]; NMR screening of hydroxamic acids, read-out: binding affinity for stromelysin
  Kd: 17000 µM
[3]; Table 3, titration of acetohydroxamic acid itself, read-out: NMR KD
  Kd: 17000 µM
[4]
  Ki: 21100 µM

## O=C(CCCCOc1ccc(-c2ccccc2)cc1)NO [Compound 23]
Stromelysin [2]
  inhibition at 100 µM: 38%

## N#Cc1ccc(-c2ccc(OCCC(=O)NO)cc2)cc1 [Compound 25]
Stromelysin [2]
  IC50: 0.025 µM

## O=C(Nc1ccc(O)cc1)c1ccccc1O [Compound 30]
FKBP [6]
  Kd: 800 µM

## O=Cc1ccc(-c2ccccc2)cc1 [Compound 5]
[3]
  Kd: 1700 µM
